Measured values reported in BindingDB's records for doi:10.1021/acs.jmedchem.6b00596 (University of Connecticut Health Center, 2016).

Target: Ubiquitin carboxyl-terminal hydrolase 1/WD repeat-containing protein 48 (Homo sapiens, UniProt O94782+Q8TAF3)
Experiment: Inhibition of human USP1/UAF1 complex using Ub-Rho as substrate by qHTS assay

Chain of Ubiquitin carboxyl-terminal hydrolase 1/WD repeat-containing protein 48 (O94782 whole entry, looked up): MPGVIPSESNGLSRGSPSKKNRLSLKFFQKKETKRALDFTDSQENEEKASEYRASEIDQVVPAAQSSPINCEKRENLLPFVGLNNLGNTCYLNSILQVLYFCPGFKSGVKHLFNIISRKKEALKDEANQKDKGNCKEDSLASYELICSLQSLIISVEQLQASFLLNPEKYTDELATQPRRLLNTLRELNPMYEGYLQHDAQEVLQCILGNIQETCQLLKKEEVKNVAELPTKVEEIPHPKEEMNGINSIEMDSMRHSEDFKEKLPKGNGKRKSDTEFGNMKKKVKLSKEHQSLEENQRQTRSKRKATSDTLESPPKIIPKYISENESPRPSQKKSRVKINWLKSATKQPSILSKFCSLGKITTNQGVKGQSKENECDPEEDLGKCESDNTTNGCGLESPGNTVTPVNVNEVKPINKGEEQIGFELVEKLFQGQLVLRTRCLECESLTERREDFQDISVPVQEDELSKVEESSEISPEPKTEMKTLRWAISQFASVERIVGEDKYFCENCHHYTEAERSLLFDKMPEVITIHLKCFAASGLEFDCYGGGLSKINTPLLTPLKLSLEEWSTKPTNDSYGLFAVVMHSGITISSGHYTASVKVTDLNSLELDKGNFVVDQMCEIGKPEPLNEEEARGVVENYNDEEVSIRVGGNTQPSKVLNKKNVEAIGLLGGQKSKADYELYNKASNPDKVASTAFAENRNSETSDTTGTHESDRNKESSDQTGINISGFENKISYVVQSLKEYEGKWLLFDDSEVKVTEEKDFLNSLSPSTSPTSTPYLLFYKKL
Chain of Ubiquitin carboxyl-terminal hydrolase 1/WD repeat-containing protein 48 (Q8TAF3 whole entry, looked up): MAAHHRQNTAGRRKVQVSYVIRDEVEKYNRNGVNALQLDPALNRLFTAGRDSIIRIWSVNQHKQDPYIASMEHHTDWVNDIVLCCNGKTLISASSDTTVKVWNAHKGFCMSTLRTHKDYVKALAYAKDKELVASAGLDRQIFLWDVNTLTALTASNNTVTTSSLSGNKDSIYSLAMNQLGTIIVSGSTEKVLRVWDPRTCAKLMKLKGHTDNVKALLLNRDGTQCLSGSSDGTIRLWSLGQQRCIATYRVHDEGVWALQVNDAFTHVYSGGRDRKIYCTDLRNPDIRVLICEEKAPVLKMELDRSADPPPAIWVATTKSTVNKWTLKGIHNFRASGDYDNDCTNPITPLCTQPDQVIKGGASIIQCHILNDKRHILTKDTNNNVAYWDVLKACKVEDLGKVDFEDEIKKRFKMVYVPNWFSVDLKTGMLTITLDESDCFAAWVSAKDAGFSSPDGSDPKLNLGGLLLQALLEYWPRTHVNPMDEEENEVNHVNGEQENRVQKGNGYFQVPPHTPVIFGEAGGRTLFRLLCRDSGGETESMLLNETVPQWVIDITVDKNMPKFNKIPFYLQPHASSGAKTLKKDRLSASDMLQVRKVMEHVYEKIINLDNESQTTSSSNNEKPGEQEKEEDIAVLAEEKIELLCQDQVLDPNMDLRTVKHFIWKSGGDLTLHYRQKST

## OCCN1CCN(CC/C=C2/c3ccccc3Sc3ccc(C(F)(F)F)cc32)CC1 [Fluphenthixol]
  IC50: 7 µM
